Converted amounts (≈) assume the structure as drawn. Some results are limits rather than exact numbers.

The MIC is the lowest concentration that inhibits growth of the organism. Read a high MIC as weaker potency. As a reminder, the IC50 is the concentration at which inhibition is half-maximal. Usually melting point stands for the temperature of the solid-liquid transition.

Data set [1] has as its system Candida albicans (ATCC 10231). The data set is described as follows: Anticandidal broth microdilution assay. Type of data set: cell-based. The conditions noted are these: ATCC10231, RPMI, 37 °C, 24 h. As to the method: (§1) Anticandidal activity assay was performed against Candida albicans (ATCC 10231), Candida utilis (NRRLY 900), Candida tropicalis (NRRLY 12968), Candida krusei (NRRLY 7179), Candida parapsilosis (NRRLY 12696) and Candida glabrata (ATCC 2001) standard strains according to the CSLI method.
(§2) The minimum inhibitory concentration (MIC, µg/mL) values against pathogenic Candida strains were determined by a broth microdilution method using a 96-well plate format. Compounds 1–14 and fluconazole as a standard control were first dissolved in dimethyl sulfoxide (DMSO) (25%) at an initial concentration of 2000 µg/mL.
(§3) All Candida strains were inoculated on Potato Dextrose Agar (PDA) prior the experiments at 37 °C. After the incubation, sufficiently grown microorganisms were inoculated in sterile saline (0.85%), and then standardized according to the turbidity to 5 × 10^3 CFU (McFarland No: 0.5) per well in RPMI medium under sterile conditions. Serial dilutions were prepared in 100 µL RPMI medium with an equal amount of the test samples, and 100 µL each microorganism suspension was pipetted into each well and incubated at 37 °C for 24 h. Positive growth controls (to assess the presence of turbidity) were performed in wells without the test samples, whereas the negative growth control (medium) was also evaluated. MIC was deﬁned as the lowest concentration without any visible growth of the yeast when compared with the growth in the control plate. All experiments were performed in duplicate.
(Dilution methods test growth across graded concentrations, often in twofold steps.)

Data set [2] deals with Candida glabrata (ATCC 2001). The data set is described as follows: Anticandidal broth microdilution assay. The conditions noted are these: Nakaseomyces glabratus, ATCC2001, RPMI, 37 °C, 24 h. Type of data set: cell-based. On the procedure:
as §1, §2, §3

The subject of data set [3] is Candida krusei (NRRLY 7179). The data set can be described thus: Anticandidal broth microdilution assay. Type of data set: cell-based. The conditions noted are these: Pichia kudriavzevii, RPMI, 37 °C, 24 h. On the procedure:
as §1, §2, §3

Data set [4] concerns Candida parapsilosis (NRRLY 12696). The data set is described as follows: Anticandidal broth microdilution assay. The data set is classed as cell-based. The conditions noted are these: Lodderomyces parapsilosis, RPMI, 37 °C, 24 h. As to the method: as §1, §2, §3
Data set [5] concerns Candida tropicalis (NRRLY 12968). The data set can be described thus: Anticandidal broth microdilution assay. The data set is classed as cell-based. The conditions noted are these: RPMI, 37 °C, 24 h. As to the method:
as §1, §2, §3

In data set [6] the test system is Candida utilis (NRRLY 900). The data set can be described thus: Anticandidal broth microdilution assay. Type of data set: cell-based. The conditions noted are these: Williopsis jadinii, RPMI, 37 °C, 24 h. On the procedure:
as §1, §2, §3

In data set [7] the test system is MCF-7 human breast adenocarcinoma cell line. The data set is described as follows: MTT cytotoxicity assay. Type of data set: cell-based. The conditions noted are these: Homo sapiens, MCF7, 24 h incubation, 3.9–500 µg/mL. On the procedure:
(§4) The tetrazolium salt, MTT (3-(4,5-dimethylthiazol-2-yl)-2,5-diphenyltetrazolium bromide), is used to measure the metabolic activity of viable cells. Tetrazolium salts are reduced to formazan by mitochondrial succinate dehydrogenase, an enzyme which is only active in cells with an intact metabolism. The formazan can be quantified photometrically and it is in correlation with the number of viable cells. Cytotoxicity was tested using the MCF-7 human breast adenocarcinoma cell line and NIH/3T3 mouse embryonic fibroblast cell line. NIH/3T3 and MCF-7 cells were incubated in RPMI medium (Hyclone, Thermo Scientific, Logan, UT, USA) supplemented with fetal calf serum (Hyclone), 100 IU/mL penicillin and […] (Hyclone) at 37 °C in a humidified atmosphere of 95% air and 5% CO2. MCF-7 and NIH/3T3 cells were seeded at 10,000 cells into each well of 96-well plates. After 24 h of incubating period, the culture mediums were removed and compounds were added to culture medium at 3.9–500 µg/mL concentrations. After 24 h of incubation, cytotoxicity tests were performed using the MTT assay, which measures mitochondrial activity, in MCF-7 and NIH/3T3 cells. Firstly, 20 µL MTT solution (5 mg/mL MTT powder in PBS) was added to each well. After 3 h incubation period at 37 °C, 5% CO2, the contents of the wells were removed and 100 µL DMSO was added to each well. Then, OD of the plate was read at 570 nm. Inhibition% was calculated for each concentration of the compounds. IC50 values were estimated by non-linear regression analysis. Cisplatin was used as a positive control. Stock solutions of compounds were prepared in DMSO and further dilutions were made with fresh culture medium. All experiments were performed in duplicate.
(In general: Tetrazolium assays rely on reduction of a dye to a coloured formazan, in cell work by metabolically active cells.)

The subject of data set [8] is NIH/3T3 mouse embryonic fibroblast cell line. The data set is described as follows: MTT cytotoxicity assay. The data set is classed as cell-based. The note with it: Mus musculus, NIH3T3, 24 h incubation, 3.9–500 µg/mL. As to the method:
as §4

As to `O=[N+]([O-])c1cc(Cl)ccc1-c1ccc(C=NNc2nc(-c3ccc(Br)cc3)cs2)o1` [Compound 12, 4-(4-Bromophenyl)-2-[2-((5-(4-chloro-2-nitrophenyl)furan-2-yl)methylene)hydrazinyl]thiazole], the melting point is 199 to 201 °C. The molecule also returned an MIC in [1] of 500 µg/mL (≈ 993 µM). In addition, the MIC in [2] turned out to be 500 µg/mL (≈ 993 µM). In data set [3], inhibition of growth (MIC) required 1000 µg/mL (≈ 1990 µM). The MIC in data set [4] is 500 µg/mL (≈ 993 µM). Also, the minimum inhibitory concentration (MIC) in data set [5] is 1000 µg/mL (≈ 1990 µM). This molecule also came in with an MIC in data set [6] of 1000 µg/mL (≈ 1990 µM). The molecule further showed an IC50 in data set [7] of 500 µg/mL (≈ 993 µM). This molecule registered an IC50 in data set [8] of over 500 µg/mL.

`Cc1ccc(-c2csc(NN=Cc3ccc(-c4ccc(Cl)cc4[N+](=O)[O-])o3)n2)cc1` [Compound 13, 2-[2-((5-(4-Chloro-2-nitrophenyl)furan-2-yl)methylene)hydrazinyl]-4-(p-tolyl)thiazole] gave a melting point of 166 to 167 °C. In [1], this molecule returned an MIC of 250 µg/mL (≈ 570 µM). In [2], the MIC came to 500 µg/mL (≈ 1140 µM). In addition, 500 µg/mL (≈ 1140 µM) was the least that counted as inhibitory in data set [3] (MIC). This molecule also yielded an MIC in data set [4] of 1000 µg/mL (≈ 2280 µM). 500 µg/mL (≈ 1140 µM) was the least that counted as inhibitory in data set [5] (MIC). In [6], the MIC amounted to 500 µg/mL (≈ 1140 µM). In data set [7], this molecule yielded an IC50 of 500 µg/mL (≈ 1140 µM). For the same molecule, the IC50 in data set [8] was over 500 µg/mL.

`COc1ccc(-c2csc(NN=Cc3ccc(-c4ccc(Cl)cc4[N+](=O)[O-])o3)n2)cc1` [Compound 14, 2-[2-((5-(4-Chloro-2-nitrophenyl)furan-2-yl)methylene)hydrazinyl]-4-(4-methoxyphenyl)thiazole]: the melting point is 206 to 207 °C. The molecule further had a minimum inhibitory concentration (MIC) in [1] of 250 µg/mL (≈ 550 µM). Further, the MIC in [2] turned out to be 500 µg/mL (≈ 1100 µM). The molecule further gave an MIC in [3] of 500 µg/mL (≈ 1100 µM). In addition, in data set [4], the MIC was 500 µg/mL (≈ 1100 µM). Further, in data set [5], the lowest concentration to inhibit growth (MIC) was 250 µg/mL (≈ 550 µM). For the same molecule, the MIC in data set [6] came to 250 µg/mL (≈ 550 µM). This molecule had an IC50 in data set [7] of over 500 µg/mL. The IC50 in [8] is over 500 µg/mL.

The values are drawn from publication PMC6271239, “Synthesis and in Vitro Evaluation of New Nitro-Substituted Thiazolyl Hydrazone Derivatives as Anticandidal and Anticancer Agents” (Molecules, 2014).
